Results from DBAASP.
≈ marks a conversion by molar mass, not a printed value.

Assays:
Assay in all cases: ≥ marks a high value that may be exact or a test limit, other limits are often not marked, values filed in µg/mL are converted to µM
[1] = system: Staphylococcus aureus ATCC 6538P
[2] = system: Micrococcus luteus ATCC 10240
[3] = system: Staphylococcus aureus TK784
[4] = system: Salmonella enterica subsp. enterica serovar Typhimurium ATCC 14028
[5] = system: Staphylococcus epidermidis ATCC 12228
[6] = system: Bacillus subtilis ATCC 6633
[7] = system: Escherichia coli ATCC 25922
[8] = system: Klebsiella pneumoniae ATCC 10031
[9] = system: Shigella dysenteriae ATCC 9752
[10] = system: Pseudomonas aeruginosa ATCC 27853
Leuconostoc lactis = system: Leuconostoc lactis
Staphylococcus aureus = system: Staphylococcus aureus
Micrococcus luteus = system: Micrococcus luteus
Streptococcus uberis = system: Streptococcus uberis
[11] = system: Batrachochytrium dendrobatidis
Bacillus cereus = system: Bacillus cereus
Pasteurella multocida = system: Pasteurella multocida
Listeria innocua = system: Listeria innocua
[12] = system: Staphylococcus epidermidis
Escherichia coli = system: Escherichia coli
[13] = system: Klebsiella pneumoniae ATCC 13883
[14] = system: Staphylococcus aureus ATCC 25923
[15] = system: Streptococcus pyogenes ATCC 19615
[16] = system: Enterococcus faecalis ATCC 29212
Bacillus subtilis = system: Bacillus subtilis
[17] = system: Staphylococcus aureus NCTC 8325
Bacillus subtilis 168 = system: Bacillus subtilis 168
[18] = system: Staphylococcus aureus USA 300
Escherichia coli K-12 = system: Escherichia coli K-12
[19] = system: Pseudomonas aeruginosa PAO1
[20] = system: Candida albicans ATCC 20032

## CC(C)C[C@H](NC(=O)[C@H](CC(C)C)NC(=O)[C@H](CCCCN)NC(=O)[C@H](CCCCN)NC(=O)[C@H](CC(C)C)NC(=O)[C@H](CC(C)C)NC(=O)[C@H](CCCCN)NC(=O)[C@H](CCCCN)NC(=O)[C@H](CC(C)C)NC(=O)[C@@H](N)Cc1c[nH]c2ccccc12)C(=O)N[C@@H](CCCCN)C(N)=O [WLKKLLKKLLK]
[1]
  MIC: 1.42 µM (≈ 2 µg/mL)
[2]
  MIC: 2.84 µM (≈ 4 µg/mL)
[3]
  MIC: 5.67 µM (≈ 7.99 µg/mL)
[4]
  MIC: 1.42 µM (≈ 2 µg/mL)
[5]
  MIC: 1.42 µM (≈ 2 µg/mL)
[6]
  MIC: 1.42 µM (≈ 2 µg/mL)
[7]
  MIC: 2.84 µM (≈ 4 µg/mL)
[8]
  MIC: 1.42 µM (≈ 2 µg/mL)
[9]
  MIC: 1.42 µM (≈ 2 µg/mL)
[10]
  MIC: 5.67 µM (≈ 7.99 µg/mL)

## CC[C@H](C)[C@H](NC(=O)[C@@H](NC(=O)[C@H](C)NC(=O)[C@H](C)NC(=O)[C@@H](NC(=O)[C@H](CCCCN)NC(=O)[C@H](CCCCN)NC(=O)[C@@H](NC(=O)[C@@H](NC(=O)[C@H](C)NC(=O)[C@H](Cc1ccccc1)NC(=O)[C@H](CC(C)C)NC(=O)CN)C(C)C)[C@@H](C)CC)C(C)C)C(C)C)C(=O)N[C@@H](CCCCN)C(=O)N[C@@H](CCCCN)C(=O)N[C@@H](CC(C)C)C(N)=O [GLFAVIKKVAAVIKKL]
Leuconostoc lactis
  MIC: 0.883 µM (≈ 1.5 µg/mL)
Staphylococcus aureus
  MIC: 14.7 µM (≈ 25 µg/mL)
Micrococcus luteus
  MIC: 14.7 µM (≈ 25 µg/mL)
Streptococcus uberis
  MIC: 7.07 µM (≈ 12 µg/mL)
[11]
  MIC: ≥ 141 µM
Bacillus cereus
  MIC: ≥ 58.9 µM
Pasteurella multocida
  MIC: ≥ 58.9 µM
Listeria innocua
  MIC: 7.07 µM (≈ 12 µg/mL)
[12]
  MIC: 1.77 µM (≈ 3 µg/mL)
Escherichia coli
  MIC: 58.9 µM (≈ 99.9 µg/mL)

## CC(C)C[C@H](NC(=O)[C@H](CO)NC(=O)[C@H](CCCN=C(N)N)NC(=O)[C@H](CCCCN)NC(=O)[C@@H](NC(=O)[C@@H](NC(=O)CNC(=O)[C@H](CCCN=C(N)N)NC(=O)[C@H](Cc1cnc[nH]1)NC(=O)[C@H](Cc1c[nH]c2ccccc12)NC(=O)[C@H](Cc1ccccc1)NC(=O)[C@H](Cc1cnc[nH]1)NC(=O)[C@H](Cc1ccc(O)cc1)NC(=O)[C@@H](N)Cc1ccc(O)cc1)C(C)C)[C@@H](C)O)C(=O)N[C@@H](CO)C(=O)N1CCC[C@H]1C(=O)N[C@@H](Cc1cnc[nH]1)C(=O)O [YYHFWHRGVTKRSLSPH]
[13]
  MIC: ≥ 100 µM
[14]
  MIC: > 100 µM
[15]
  MIC: ≥ 100 µM
[4]
  MIC: > 100 µM
Escherichia coli
  MIC: 30 µM (≈ 65.1 µg/mL)
[16]
  MIC: > 100 µM
Bacillus subtilis
  MIC: ≥ 100 µM
[10]
  MIC: > 100 µM

## CC[C@H](C)[C@H](NC(=O)CN)C(=O)N[C@@H](CC(C)C)C(=O)N[C@@H](CO)C(=O)N[C@H](C(=O)N[C@@H](Cc1ccccc1)C(=O)N[C@@H](CCCCN)C(=O)NCC(=O)N[C@@H](CC(C)C)C(=O)N[C@@H](C)C(=O)N[C@@H](CCCCN)C(=O)NCC(=O)N[C@H](C(=O)N[C@@H](C)C(=O)N[C@@H](CCCCN)C(=O)N[C@@H](CC(=O)O)C(=O)N[C@@H](CC(C)C)C(=O)N[C@@H](C)C(=O)NCC(=O)N[C@@H](CC(N)=O)C(=O)N[C@@H](CC(C)C)C(=O)N[C@@H](CC(C)C)C(=O)N[C@@H](CC(=O)O)C(=O)N[C@@H](CCCCN)C(=O)N[C@@H](Cc1ccccc1)C(=O)N[C@@H](CCCCN)C(=O)N[C@H]1CSSC[C@@H](C(=O)O)NC(=O)CNC(=O)[C@H]([C@@H](C)O)NC(=O)[C@H]([C@@H](C)CC)NC(=O)[C@H](CCCCN)NC1=O)C(C)C)[C@@H](C)O [GILSTFKGLAKGVAKDLAGNLLDKFKCKITGC]
[11]
  MIC: 25 µM (≈ 82.7 µg/mL)
[17]
  MIC: 27 µM (≈ 89.3 µg/mL)
[7]
  MIC: 7 µM (≈ 23.2 µg/mL)

## CC(C)[C@H](NC(=O)[C@@H](NC(=O)[C@H](CCCCN)NC(=O)CNC(=O)[C@@H](NC(=O)[C@@H](NC(=O)[C@H](CO)NC(=O)[C@@H](NC(=O)[C@@H](NC(=O)[C@@H]1CCCN1C(=O)[C@@H](NC(=O)[C@@H](NC(=O)CN)C(C)C)C(C)C)C(C)C)C(C)C)C(C)C)C(C)C)C(C)C)C(N)=O [GVVPVVSVVGKVV]
Bacillus subtilis 168
  MIC: ≥ 100 µM
[18]
  MIC: ≥ 100 µM
Escherichia coli K-12
  MIC: ≥ 100 µM
[19]
  MIC: > 100 µM

## CC(C)C[C@H](NC(=O)[C@H](Cc1c[nH]c2ccccc12)NC(=O)[C@H](CCCCN)NC(=O)[C@H](CCCCN)NC(=O)[C@H](CC(C)C)NC(=O)[C@H](Cc1c[nH]c2ccccc12)NC(=O)[C@H](CCCCN)NC(=O)[C@@H](N)CC(C)C)C(=O)N[C@@H](CCCCN)C(N)=O [LKWLKKWLK]
[1]
  MIC: 8.05 µM (≈ 9.99 µg/mL)
[2]
  MIC: ≥ 64.4 µM
[3]
  MIC: ≥ 64.4 µM
[4]
  MIC: > 64.4 µM
[5]
  MIC: 32.2 µM (≈ 40 µg/mL)
[6]
  MIC: ≥ 32.2 µM
[7]
  MIC: 32.2 µM (≈ 40 µg/mL)
[8]
  MIC: ≥ 64.4 µM
[9]
  MIC: ≥ 64.4 µM
[10]
  MIC: 32.2 µM (≈ 40 µg/mL)

## CC[C@H](C)[C@@H]1NC(=O)[C@H](CO)NC(=O)[C@H](CCCCN)NC(=O)[C@H]([C@@H](C)O)NC(=O)[C@H](Cc2c[nH]c3ccccc23)NC(=O)[C@@H](NC(=O)CNC(=O)[C@H](CCCCN)NC(=O)[C@H](CC(C)C)NC(=O)[C@H](C)NC(=O)[C@H](C)N)CSSC[C@@H](C(=O)N[C@@H](CO)C(=O)NCC(=O)N[C@@H](CCCCN)C(=O)N[C@@H](CCCN=C(N)N)C(=O)O)NC(=O)[C@@H]2CCCN2C(=O)[C@H](CCCCN)NC(=O)[C@@H]2CCCN2C(=O)[C@@H]2CCCN2C1=O [AALKGCWTKSIPPKPCSGKR]
[20]
  MIC: 23.4 µM (≈ 49.8 µg/mL)
[14]
  MIC: 11.7 µM (≈ 24.9 µg/mL)

## CC(C)C[C@H](NC(=O)[C@H](CCCCN)NC(=O)[C@H](CCCCN)NC(=O)[C@H](CC(C)C)NC(=O)[C@H](Cc1c[nH]c2ccccc12)NC(=O)[C@H](CCCCN)NC(=O)[C@H](CC(C)C)NC(=O)[C@H](CC(C)C)NC(=O)[C@H](CCCCN)NC(=O)[C@H](CCCCN)NC(=O)[C@@H](N)CC(C)C)C(N)=O [LKKLLKWLKKL]
[1]
  MIC: 1.42 µM (≈ 2 µg/mL)
[2]
  MIC: 2.84 µM (≈ 4 µg/mL)
[3]
  MIC: 11.3 µM (≈ 16 µg/mL)
[4]
  MIC: 2.84 µM (≈ 4 µg/mL)
[5]
  MIC: 1.42 µM (≈ 2 µg/mL)
[6]
  MIC: 1.42 µM (≈ 2 µg/mL)
[7]
  MIC: 1.42 µM (≈ 2 µg/mL)
[8]
  MIC: 1.42 µM (≈ 2 µg/mL)
[9]
  MIC: 1.42 µM (≈ 2 µg/mL)
[10]
  MIC: 5.67 µM (≈ 7.99 µg/mL)

## CC(C)C[C@H](NC(=O)[C@H](CC(C)C)NC(=O)[C@H](CCCCN)NC(=O)[C@H](CC(C)C)NC(=O)[C@H](CCCCN)NC(=O)[C@H](CC(C)C)NC(=O)[C@H](CCCCN)NC(=O)[C@H](CC(C)C)NC(=O)[C@H](CC(C)C)NC(=O)[C@H](CC(C)C)NC(=O)[C@@H](N)CCCCN)C(=O)N[C@@H](CCCCN)C(N)=O [KLLLKLKLKLLK]
[13]
  MIC: ≥ 200 µM
[14]
  MIC: 50 µM (≈ 72.5 µg/mL)
[15]
  MIC: ≥ 50 µM
[4]
  MIC: > 200 µM
Escherichia coli
  MIC: 50 µM (≈ 72.5 µg/mL)
[16]
  MIC: 100 µM (≈ 145 µg/mL)
Bacillus subtilis
  MIC: ≥ 50 µM
[10]
  MIC: 100 µM (≈ 145 µg/mL)

## CC[C@H](C)[C@H](NC(=O)[C@@H](NC(=O)[C@@H]1CCCN1C(=O)[C@H](CC(C)C)NC(=O)[C@@H](N)Cc1ccccc1)[C@@H](C)CC)C(=O)N[C@@H](C)C(=O)N[C@@H](CO)C(=O)N[C@@H](CC(C)C)C(=O)N[C@@H](CC(C)C)C(=O)N[C@@H](CO)C(=O)N[C@@H](CCCCN)C(=O)N[C@@H](CC(C)C)C(=O)N[C@@H](CC(C)C)C(N)=O [FLPIIASLLSKLL]
[11]
  MIC: ≥ 32.2 µM
